Where “and” joins values, the source holds several entries; their conditions need not be identical. Identical values can stand only once.
Species: Rattus norvegicus
Test: DrugMatrix - Regimen: Daily Repeat
Type: toxicity, organism-based, Sprague-Dawley
Parameters: regimen Daily Repeat, gender Male, age 6-8 weeks
Settings: in vivo, po, 0 mg/kg, route oral GAVAGE, dose level Control, vehicle .5 % CMC; for ABSOLUTE BASOPHIL / ABSOLUTE EOSINOPHIL / ABSOLUTE LYMPHOCYTE / ABSOLUTE MONOCYTE / ABSOLUTE SEGMENTED NEUTROPHIL / BASOPHIL / EOSINOPHIL / ERYTHROCYTE COUNT / HEMATOCRIT / HEMOGLOBIN / LEUKOCYTE COUNT / LYMPHOCYTE / MEAN CORPUSCULAR HEMOGLOBIN / MEAN CORPUSCULAR HEMOGLOBIN CONCENTRATION / MEAN CORPUSCULAR VOLUME / MONOCYTE / NEUTROPHIL / PLATELET COUNT: tissue Blood
[1] = 120 h, tissue Plasma, time 5 day
[2] = 2184 h, tissue Plasma, time 91 day
[3] = […], tissue Plasma, time 28 day

Cc1ccc2cc3c(ccc4ccccc43)c3c2c1CC3 [3-METHYLCHOLANTHRENE]
TOTAL PROTEIN [1]: 6.06 G/DL and 6.27 G/DL | URIC ACID [1]: 1.04 mg/dL | ABSOLUTE BASOPHIL (2184 h, time 91 day): 130 cells/µL | ABSOLUTE EOSINOPHIL (2184 h, time 91 day): 70 cells/µL | ABSOLUTE LYMPHOCYTE (2184 h, time 91 day): 8670 cells/µL | ABSOLUTE MONOCYTE (2184 h, time 91 day): 160 cells/µL | ABSOLUTE SEGMENTED NEUTROPHIL (2184 h, time 91 day): 1530 cells/µL | BASOPHIL (2184 h, time 91 day): 1.13% | EOSINOPHIL (2184 h, time 91 day): 0.66% | ERYTHROCYTE COUNT (2184 h, time 91 day): 9.13 x10E6/uL | HEMATOCRIT (2184 h, time 91 day): 48.47% | HEMOGLOBIN (2184 h, time 91 day): 16.56 G/DL | LEUKOCYTE COUNT (2184 h, time 91 day): 10.5 x10E3/uL | LYMPHOCYTE (2184 h, time 91 day): 81.63% | MEAN CORPUSCULAR HEMOGLOBIN (2184 h, time 91 day): 18.16 pg | MEAN CORPUSCULAR HEMOGLOBIN CONCENTRATION (2184 h, time 91 day): 34.14 G/DL | MEAN CORPUSCULAR VOLUME (2184 h, time 91 day): 53.14 fL | MONOCYTE (2184 h, time 91 day): 1.53% | NEUTROPHIL (2184 h, time 91 day): 14.71% | PLATELET COUNT (2184 h, time 91 day): 1280.22 x10E3/uL | ALANINE AMINOTRANSFERASE [2]: 28.89 u/L | ALBUMIN [2]: 3.69 G/DL | ALKALINE PHOSPHATASE [2]: 101.11 u/L | ASPARTATE AMINOTRANSFERASE [2]: 70.67 u/L | BLOOD UREA NITROGEN [2]: 16.78 mg/dL | CHLORIDE [2]: 104.56 MEQ/L | CHOLESTEROL [2]: 58.78 mg/dL | CREATINE PHOSPHOKINASE [2]: 91.22 u/L | CREATININE [2]: 0.61 mg/dL | GLUCOSE [2]: 142.33 mg/dL | LACTATE DEHYDROGENASE [2]: 81.67 u/L | LIPASE [2]: 13 u/L | PHOSPHORUS [2]: 7.54 mg/dL | POTASSIUM [2]: 6.27 MEQ/L | SODIUM [2]: 149.89 MEQ/L | TOTAL BILIRUBIN [2]: 0.19 mg/dL | TOTAL PROTEIN [2]: 7.12 G/DL | URIC ACID [2]: 0.97 mg/dL | ABSOLUTE BASOPHIL ([…], time 28 day): 150 cells/µL | ABSOLUTE EOSINOPHIL ([…], time 28 day): 54 cells/µL | ABSOLUTE LYMPHOCYTE ([…], time 28 day): 8890 cells/µL | ABSOLUTE MONOCYTE ([…], time 28 day): 190 cells/µL | ABSOLUTE SEGMENTED NEUTROPHIL ([…], time 28 day): 2250 cells/µL | BASOPHIL ([…], time 28 day): 1.26% | EOSINOPHIL ([…], time 28 day): 0.46% | ERYTHROCYTE COUNT ([…], time 28 day): 8.34 x10E6/uL | HEMATOCRIT ([…], time 28 day): 48.66% | HEMOGLOBIN ([…], time 28 day): 16.04 G/DL | LEUKOCYTE COUNT ([…], time 28 day): 11.58 x10E3/uL | LYMPHOCYTE ([…], time 28 day): 76.74% | MEAN CORPUSCULAR HEMOGLOBIN ([…], time 28 day): 19.2 pg | MEAN CORPUSCULAR HEMOGLOBIN CONCENTRATION ([…], time 28 day): 32.92 G/DL | MEAN CORPUSCULAR VOLUME ([…], time 28 day): 58.32 fL | MONOCYTE ([…], time 28 day): 1.76% | NEUTROPHIL ([…], time 28 day): 19.44% | PLATELET COUNT ([…], time 28 day): 1282.6 x10E3/uL | ALANINE AMINOTRANSFERASE [3]: 27 u/L | ALBUMIN [3]: 3.68 G/DL | ALKALINE PHOSPHATASE [3]: 146.2 u/L | ASPARTATE AMINOTRANSFERASE [3]: 66.6 u/L | BLOOD UREA NITROGEN [3]: 12.4 mg/dL | CHLORIDE [3]: 104.6 MEQ/L
